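Cultured in 96-well plates, cells were exposed to test compound for 48 hours across five concentrations. Here, GI50 denotes the concentration required for 50% inhibition of growth.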 Activity calls are given as the source filed them. Cut-off read from the data, not from the text of the source: active = GI50 up to about 1.1 µM and inactive = higher.
What was measured:
Assay in all cases: NCI anticancer screen, dose series, 48 h
[1] = system: 786-0
[2] = system: A498
[3] = system: ACHN
[4] = system: BT-549
[5] = system: CAKI-1
[6] = system: COLO 205
[7] = system: HOP-62
[8] = system: MDA-MB-435
[9] = system: MOLT-4
[10] = system: Malme-3M
[11] = system: PC-3
[12] = system: RXF 393
[13] = system: SK-MEL-5
[14] = system: SW-620
[15] = system: UACC-62
[16] = system: HL-60
[17] = system: HT-29
[18] = system: SF-539

Row | Structure (SMILES) | GI50 [1] | GI50 [2] | GI50 [3] | GI50 [4] | GI50 [5] | GI50 [6] | GI50 [7] | GI50 [8] | GI50 [9] | GI50 [10] | GI50 [11] | GI50 [12] | GI50 [13] | GI50 [14] | GI50 [15] | GI50 [16] | GI50 [17] | GI50 [18]
1 | CC1=NN(C(=O)CSc2nnc(SCC(=O)N3N=C(C)CC3(O)c3ccccc3)s2)C(O)(c2ccccc2)C1 (stereo not given) | 43.3 µM (inactive) | > 100 µM (inactive) | 34.8 µM (inactive) | 15.5 µM (inactive) | 45.8 µM (inactive) | 32.1 µM (inactive) | 51.3 µM (inactive) | 51.3 µM (inactive) | 32.3 µM (inactive) | 99.1 µM (inactive) | 34.5 µM (inactive) | 24.9 µM (inactive) | 28.2 µM (inactive) | > 100 µM (inactive) | 18.6 µM (inactive) | – | – | –
2 | O=C(Cn1c2c(c3ccccc31)CCCC2)N1CCCC1 | > 100 µM (inactive) | 65 µM (inactive) | > 100 µM (inactive) | > 100 µM (inactive) | > 100 µM (inactive) | > 100 µM (inactive) | > 100 µM (inactive) | 77.1 µM (inactive) | – | > 100 µM (inactive) | > 100 µM (inactive) | – | 54.3 µM (inactive) | > 100 µM (inactive) | 78.5 µM (inactive) | 94.6 µM (inactive) | > 100 µM (inactive) | 69.8 µM (inactive)
3 | Nc1ncnc2c1nc(O)n2-c1ccccc1 | > 100 µM (inactive) | > 100 µM (inactive) | > 100 µM (inactive) | > 100 µM (inactive) | 78.9 µM (inactive) | > 100 µM (inactive) | > 100 µM (inactive) | > 100 µM (inactive) | > 100 µM (inactive) | > 100 µM (inactive) | > 100 µM (inactive) | – | > 100 µM (inactive) | > 100 µM (inactive) | > 100 µM (inactive) | > 100 µM (inactive) | > 100 µM (inactive) | > 100 µM (inactive)
4 | C=CCC(SC)C1=C(C)C(=O)c2ccccc21 (stereo not given) | > 10 µM (inactive) | > 10 µM (inactive) | > 10 µM (inactive) | > 10 µM (inactive) | – | – | > 10 µM (inactive) | > 10 µM (inactive) | > 10 µM (inactive) | > 10 µM (inactive) | > 10 µM (inactive) | > 10 µM (inactive) | > 10 µM (inactive) | > 10 µM (inactive) | > 10 µM (inactive) | – | > 10 µM (inactive) | > 10 µM (inactive)
5 | Cc1c2n(c3ccccc13)S(=O)(=O)c1ccccc1-2 | 10.1 µM (inactive) | 11 µM (inactive) | 18.1 µM (inactive) | 39.8 µM (inactive) | 12.3 µM (inactive) | > 100 µM (inactive) | – | > 100 µM (inactive) | > 100 µM (inactive) | 33.1 µM (inactive) | 22.5 µM (inactive) | – | 72.1 µM (inactive) | > 100 µM (inactive) | 28.1 µM (inactive) | > 100 µM (inactive) | 15.4 µM (inactive) | –
6 | CCNCCNC(=O)c1ccc(I)cc1 | > 100 µM (inactive) | > 100 µM (inactive) | > 100 µM (inactive) | > 100 µM (inactive) | > 100 µM (inactive) | – | – | – | > 100 µM (inactive) | – | > 100 µM (inactive) | > 100 µM (inactive) | > 100 µM (inactive) | > 100 µM (inactive) | > 100 µM (inactive) | > 100 µM (inactive) | > 100 µM (inactive) | > 100 µM (inactive)
7 | O=C(/C=C\c1ccccc1)Oc1ccc(/C=C2\CCC/C(=C\c3ccc(OC(=O)/C=C\c4ccccc4)cc3)C2=O)cc1 | > 100 µM (inactive) | – | > 100 µM (inactive) | > 100 µM (inactive) | > 100 µM (inactive) | > 100 µM (inactive) | > 100 µM (inactive) | > 100 µM (inactive) | > 100 µM (inactive) | – | > 100 µM (inactive) | – | > 100 µM (inactive) | > 100 µM (inactive) | > 100 µM (inactive) | > 100 µM (inactive) | > 100 µM (inactive) | > 100 µM (inactive)
8 | Cc1cccc(C)c1NC(=O)/C=C/c1ccccc1 | > 100 µM (inactive) | > 100 µM (inactive) | 15.4 µM (inactive) | > 100 µM (inactive) | > 100 µM (inactive) | > 100 µM (inactive) | 50.1 µM (inactive) | > 100 µM (inactive) | > 100 µM (inactive) | 51.2 µM (inactive) | > 100 µM (inactive) | – | > 100 µM (inactive) | > 100 µM (inactive) | > 100 µM (inactive) | > 100 µM (inactive) | > 100 µM (inactive) | > 100 µM (inactive)
9 | O=c1cc(NNc2ccccc2F)[nH]c(=O)[nH]1 | 15.3 µM (inactive) | 59.8 µM (inactive) | 18.3 µM (inactive) | 17.5 µM (inactive) | 13 µM (inactive) | 19.2 µM (inactive) | – | – | 23.4 µM (inactive) | 18.8 µM (inactive) | 18.9 µM (inactive) | 1.26 µM (inactive) | 22.3 µM (inactive) | 18 µM (inactive) | 17.1 µM (inactive) | 11.9 µM (inactive) | 17.9 µM (inactive) | 16.8 µM (inactive)
10 | O=C(OCC(Cl)(Cl)Cl)N1CC[C@@H](C2CCCCC2)C1 | 20.6 µM (inactive) | – | 22.8 µM (inactive) | 38.2 µM (inactive) | 27 µM (inactive) | 23.6 µM (inactive) | 20.4 µM (inactive) | < 0.01 µM (active) | 33.8 µM (inactive) | – | 21.2 µM (inactive) | 18.3 µM (inactive) | 18.1 µM (inactive) | – | 27.7 µM (inactive) | – | – | –
11 | CC(C)CC(NP(=O)(O)OC1OC(C)C(O)C(O)C1O)C(=O)NC(Cc1c[nH]c2ccccc12)C(=O)O (stereo not given) | > 100 µM (inactive) | > 100 µM (inactive) | – | > 100 µM (inactive) | > 100 µM (inactive) | > 100 µM (inactive) | > 100 µM (inactive) | > 100 µM (inactive) | > 100 µM (inactive) | > 100 µM (inactive) | > 100 µM (inactive) | – | > 100 µM (inactive) | > 100 µM (inactive) | > 100 µM (inactive) | – | > 100 µM (inactive) | > 100 µM (inactive)
12 | COc1cc(S(=O)(=O)Nc2ccc(-c3csc(/N=C\c4cccs4)n3)cc2)ccc1Cl | 59.3 µM (inactive) | 31.8 µM (inactive) | > 100 µM (inactive) | 31.1 µM (inactive) | > 100 µM (inactive) | 32.5 µM (inactive) | 67 µM (inactive) | 29.3 µM (inactive) | – | 78 µM (inactive) | > 100 µM (inactive) | – | 42.3 µM (inactive) | 34.3 µM (inactive) | 23.3 µM (inactive) | – | 57.1 µM (inactive) | 39.7 µM (inactive)
13 | COc1ccc2c3c1OC1c4[nH]c5ccccc5c4CC4(O)C(C2)N(C)CCC314 (stereo not given) | 18.7 µM (inactive) | 15.3 µM (inactive) | 20.6 µM (inactive) | 30.8 µM (inactive) | 35.3 µM (inactive) | 18.4 µM (inactive) | 40.3 µM (inactive) | 18.1 µM (inactive) | 16.7 µM (inactive) | – | 37.2 µM (inactive) | 20 µM (inactive) | 15.2 µM (inactive) | 39.1 µM (inactive) | 20.9 µM (inactive) | – | 22 µM (inactive) | –
14 | CC(=O)NN/C=N/C(C#N)=C(\N)C#N | > 100 µM (inactive) | > 100 µM (inactive) | > 100 µM (inactive) | > 100 µM (inactive) | > 100 µM (inactive) | > 100 µM (inactive) | > 100 µM (inactive) | > 100 µM (inactive) | > 100 µM (inactive) | > 100 µM (inactive) | > 100 µM (inactive) | – | > 100 µM (inactive) | > 100 µM (inactive) | > 100 µM (inactive) | > 100 µM (inactive) | > 100 µM (inactive) | > 100 µM (inactive)
15 | COc1cccc(C23CCCC(C2)N(C)CC3OC(=O)c2ccccc2)c1OC (stereo not given) | 32.7 µM (inactive) | 34.7 µM (inactive) | 32.7 µM (inactive) | 14.5 µM (inactive) | 42.4 µM (inactive) | 14.1 µM (inactive) | 31.3 µM (inactive) | 18 µM (inactive) | 18.4 µM (inactive) | 16.6 µM (inactive) | 23.8 µM (inactive) | – | 14 µM (inactive) | 24.4 µM (inactive) | 25.9 µM (inactive) | 10.2 µM (inactive) | 13.2 µM (inactive) | 52.5 µM (inactive)
16 | COc1ccc(-c2oc3c(OC)c(OC)c(OC)c(OC)c3c(=O)c2OC)cc1OC [3,5,6,7,8,3',4'-HEPTAMETHOXYFLAVONE] | 24.5 µM (inactive) | 31 µM (inactive) | 33.5 µM (inactive) | 50.7 µM (inactive) | 53.8 µM (inactive) | 65.6 µM (inactive) | 14.5 µM (inactive) | 15.8 µM (inactive) | 22.4 µM (inactive) | 28 µM (inactive) | 26.6 µM (inactive) | – | 19.3 µM (inactive) | 32.8 µM (inactive) | 48.3 µM (inactive) | 14.1 µM (inactive) | 26.5 µM (inactive) | 65.8 µM (inactive)
17 | COC(=O)[C@H](C)[C@@H]1CC[C@](C)(CCC2=C(C)CCCC2(C)C)OO1 | > 25 µM (inactive) | – | > 25 µM (inactive) | > 25 µM (inactive) | > 25 µM (inactive) | > 25 µM (inactive) | > 25 µM (inactive) | > 25 µM (inactive) | > 25 µM (inactive) | > 25 µM (inactive) | > 25 µM (inactive) | > 25 µM (inactive) | > 25 µM (inactive) | > 25 µM (inactive) | > 25 µM (inactive) | 12 µM (inactive) | > 25 µM (inactive) | > 25 µM (inactive)
